Measurements from PubChem BioAssay AID434987 (Southern Research Specialized Biocontainment Screening …, 2010).
Activity calls are given as the source filed them. How the calls were made is not given here.

Tested on: M. tuberculosis H37Rv growth inhibition with meropenem
Assay: dose response, H37Rv, with and without meropenem (AID 434987);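 further: growth over 7 days at 37 °C before Alamar Blue read on day 9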
[1] = M. tuberculosis H37Rv growth inhibition, measured here: IC50 without meropenem
[2] = M. tuberculosis H37Rv growth inhibition, measured here: IC90 without meropenem
[3] = measured here: IC90 with meropenem

Compound | IC50 | IC50 [1] [µM] | IC90 [2] [µM] | IC90 [3] [µM]
COc1cc(/C=N/NC(N)=S)ccc1OC(=O)c1ccc(C)cc1 | > 100 µM (inactive) | > 100 | > 100 | > 100
COc1cccc(NC(=O)C(=O)c2cn(CC(=O)N3CCOCC3)c3ccccc23)c1 | > 100 µM (inactive) | > 100 | > 100 | > 100
COc1cc(-c2nc(S(=O)(=O)c3ccc(C)cc3)c(N3CCOCC3)o2)cc(OC)c1OC | > 100 µM (inactive) | > 100 | > 100 | > 100
CCc1ccc(NC(=S)Nc2ccc3cn[nH]c3c2)cc1 | 23.9 µM | > 100 | > 100 | > 100
Cc1ccc(N=Cc2c(O)ccc3ccccc23)cc1F | > 100 µM (inactive) | > 100 | > 100 | > 100
C/C(=N\NC(=S)Nc1ccccc1C)c1ccc(O)cc1 | 0.552 µM | 21.6 | 24.7 | 7.97
CC(C)(C)c1nc2scc(-c3cccs3)c2c(=O)o1 | > 100 µM (inactive) | > 100 | > 100 | > 100
CC1CCCN(S(=O)(=O)c2ccc(C(=O)Nc3nnc(-c4ccncc4)o3)cc2)C1 (stereo not drawn) | 32.4 µM (inactive) | 49.3 | 78.1 | 64.8
Cc1nn(Cc2ccc(Cl)cc2)c(C)c1NC(=O)CSc1nc2c(c(C(F)(F)F)n1)CCc1ccccc1-2 | > 100 µM (inactive) | > 100 | > 100 | > 100
COC(=O)c1c(-c2ccc(OC)cc2)oc2ccc(-c3cc(OC)c(OC)c(OC)c3)cc12 | 7.72 µM | > 100 | > 100 | > 100
Cc1cc(=O)[nH]c(N/N=C/c2c(F)c(F)c(F)c(F)c2F)n1 | 64.6 µM (inactive) | 92.1 | > 100 | 82.3
CCOC(=O)c1sc(NC(=O)CN2CCN(c3ccc(OC)cc3)CC2)nc1C | 68.2 µM (inactive) | 98.9 | > 100 | > 100
CCSc1nc2ccccc2c(=O)n1CCc1ccc(OC)c(OC)c1 | > 100 µM (inactive) | > 100 | > 100 | > 100
Cc1cccc(OCc2nc(-c3ccccn3)n[nH]2)c1 | 3.43 µM | 22.5 | 25.6 | 7.37
COc1ccc(OC)c(NC(=O)CSC2=C(C#N)C(c3ccco3)C3=C(CCCC3=O)N2)c1 (stereo not drawn) | 70.4 µM (inactive) | 94.2 | > 100 | > 100
CCOc1ccc2c(c1)c(C(C)=O)c(C)n2-c1ccccc1 | < 0.2 µM | > 100 | > 100 | 1.96
Cc1cc(=O)n2c(-c3ccccc3C)n[nH]c2n1 | 51 µM (inactive) | 62.4 | > 100 | > 100
COc1ccccc1CNC(=O)COC(=O)C1=COCCO1 | 18.5 µM | 67.9 | > 100 | > 100
Cc1cccc(Cl)c1NC(=S)NN | 36 µM (inactive) | 44.5 | 59.5 | 55.1

Compound | IC50 | IC50 [1] [µM] | IC90 [2] [µM] | IC90 [3] [µM]
c1ccc(-c2ccc(C3=Nn4c(Cn5nnc6ccccc65)nnc4SC3)cc2)cc1 | 53.5 µM (inactive) | 84.4 | > 100 | > 100
CCc1ccc2nc(/N=C(\N)NC(=O)c3ccccc3)nc(C)c2c1 | 1.02 µM | 22.4 | > 50 | > 100
COCCCn1c(=O)/c(=C\c2cccc(OC)c2OC)s/c1=C(/C#N)C(=O)Nc1ccc(C(=O)O)cc1 | 5 µM | 14.6 | 31.4 | 24.6
CCOC(=O)c1ccc(N2CN(CCc3ccccc3)CNC2=S)cc1 | 26.9 µM | 91.5 | > 100 | > 100
COc1ccc(-c2cc3nc(C)cc(N4CC(C)CC(C)C4)n3n2)cc1 (stereo not drawn) | > 100 µM (inactive) | > 100 | > 100 | > 100
N#C/C(C(=O)NCc1ccco1)=C1/SC=C(c2ccccc2)N1c1ccccc1 | > 100 µM (inactive) | > 100 | > 100 | > 100
Cc1cc(N2CCCCCC2)nc(-c2ccccc2O)n1 | 67.2 µM (inactive) | 91.3 | > 100 | > 100
CCOCC(=O)N1CCN(c2ccc(F)cc2)CC1 | 33.8 µM | 84.1 | > 100 | > 100
CCOC(=O)c1nn(-c2ccccc2)c(C#N)c1NC(=O)c1nn(CC)cc1Br | > 100 µM (inactive) | > 100 | > 100 | > 100
Cc1c(-c2ccccc2)sc(Br)c1C(=O)N1CCOCC1 | > 100 µM (inactive) | > 100 | > 100 | > 100
COC(=O)c1c(C(=O)OC)c(C)n(Cc2ccco2)c1C | 64.4 µM (inactive) | > 100 | > 100 | > 100
Cc1[nH]n(-c2ccccc2)c(=O)c1/C=N/NC(=O)c1ccoc1C | 0.655 µM | > 100 | > 100 | 3.01
Cc1cc(C)cc(NC(=S)NN)c1 | 55.5 µM (inactive) | 78.3 | > 100 | > 100
CCOc1ccc2nc(SCC(=O)Nc3nonc3C)[nH]c2c1 | 32.8 µM | > 100 | > 100 | > 100
CCOC(=O)CNC(=O)/C(=C\c1ccc(F)cc1)NC(=O)c1ccccc1 | 19.1 µM | 55.5 | > 100 | 35.1
O=c1c(N=Nc2ccc(O)cc2)c(-c2ccccc2)[nH]n1-c1ccc([N+](=O)[O-])cc1 | > 100 µM (inactive) | > 100 | > 100 | > 100
COc1ccc(C[C@H](C)NC[C@@H](O)c2ccc(O)c(NC=O)c2)cc1 | > 100 µM (inactive) | > 100 | > 100 | > 100
CCOc1cc(/C=N\NC(=O)c2ccc(NC(=O)C(C)(C)C)cc2)ccc1OC(=O)c1ccc(C)cc1 | > 100 µM (inactive) | > 100 | > 100 | > 100
COc1ccc(NC(=O)COC(=O)Cc2ccc(-c3ccccc3)cc2)c(OC)c1 | > 100 µM (inactive) | > 100 | > 100 | > 100

Compound | IC50 | IC50 [1] [µM] | IC90 [2] [µM] | IC90 [3] [µM]
CCCCOc1ccc(/C=N/Nc2cc(N3CCOCC3)nc(C)n2)cc1 | > 100 µM (inactive) | > 100 | > 100 | > 100
Cc1ccccc1CSc1nnc(C)c(=O)n1N | 19.5 µM (inactive) | 45.4 | > 100 | 32.3
COc1cccc(-c2nnn(CC(=O)Nc3cc(OC)c(NC(=O)c4ccco4)cc3OC)n2)c1 | 31.2 µM | > 100 | > 100 | > 100
Nc1c2c(nc3sc4c(c13)CCCC4)-c1ccccc1CC2 | 6.11 µM | > 100 | > 100 | > 100
O=C(CSC1CS(=O)(=O)c2cc([N+](=O)[O-])ccc21)NNC(=O)c1ccccc1 (stereo not drawn) | 11.8 µM | 89 | 94.3 | 13.3
CSCC(=O)Nc1ccc(F)c(Cl)c1 | 10.1 µM (inactive) | 21.9 | > 100 | > 100
Cc1ccc(C(=O)N/C(=C\c2ccc(-c3ccc(Cl)cc3)o2)C(=O)NCCCN(C)C)cc1 | 22.4 µM (inactive) | 25.2 | 28.3 | 23.7
COC(=O)[C@@]1(Cc2ccc(F)cc2)[C@H]2c3cc(C(=O)N(C)C)n(Cc4ccc(OC)c(OC)c4)c3C[C@H]2CN1C(=O)c1ccccc1 | > 100 µM (inactive) | > 100 | > 100 | > 100
Cn1c(=S)[nH]c2sc3c(c2c1=O)CCC(C(C)(C)C)C3 (stereo not drawn) | 38 µM (inactive) | 79 | > 100 | > 100
CCOc1ccc(N(CC(=O)NCCSCc2ccccc2Cl)S(C)(=O)=O)cc1 | > 100 µM (inactive) | > 100 | > 100 | > 100
COc1ccc(C(=O)CN(C(=O)c2ccc(Cl)cc2)N2C(=O)c3ccccc3C2=O)cc1 | 5.66 µM | 34.9 | > 100 | 22.4
O=C(COC(=O)c1ccc(Cl)cc1[N+](=O)[O-])NNC(=O)c1cccs1 | 24.8 µM (inactive) | 39.4 | 53.9 | 51.1
CC/C(=N\NC(=S)NC(C)C)c1ccc(OC)c(OC)c1 | 12.9 µM (inactive) | 20.2 | 24.7 | 15.5
Cc1nn(C)c(C(=O)NC(=S)Nc2ccccc2Br)c1Cl | > 100 µM (inactive) | > 100 | > 100 | > 100
O=C(CSc1ccc([N+](=O)[O-])cn1)Nc1ccc(N2CCOCC2)cc1 | 4.82 µM | 17.6 | > 100 | > 100
COc1cc(C(F)(F)F)nc2ccc(C#CCOC(=O)Nc3ccccc3)cc12 | > 100 µM (inactive) | > 100 | > 100 | > 100
O=C(/C=C/c1ccccc1)NC1CC2CCC1C2 (stereo not drawn) | > 100 µM (inactive) | > 100 | > 100 | > 100
CC(C)CCN1CC(O)=C(c2nc3ccccc3[nH]2)C1=N | 6.68 µM | 73 | > 100 | > 100
Cc1ccc(Cn2c(C(C)Nc3nc(-c4ccc(Cl)cc4)cs3)nc3cc(C(=O)NCCCO)ccc32)cc1 (stereo not drawn) | 73.5 µM (inactive) | 67.3 | 86.4 | > 100
